Results reported in ChEMBL document CHEMBL5661943, “ASAP - In vitro antiviral effect” (2024).
Where “and” joins values, the source holds several entries; their conditions need not be identical. Equal values may be shown once.

Key:
[1] = test system: dengue virus type 2; test: Functional assay to measure dose dependent changes in antiviral-drug inhibitory efficacy against Dengue virus type 2 New Guinea C in Vero E6 miRFP670 cells (cotreated with P-gp inhibitor, CP100356). Cells are treated with antiviral candidates that are serially diluted, following infection, cells are fixed. EC50 is reported via analysis of fluorescence intensity using high-content imager. The …; type: organism-based, Chlorocebus sabaeus, Vero C1008; settings: for EC90: P-gp concentration 500 nM, P-gp inhibitor CP100356
[2] = test system: Zika virus; test: (§1) Functional CPE-based assay to measure dose dependent changes in antiviral-drug inhibitory efficacy against Zika virus MR766 in Vero E6 miRFP670 cells. Cells are treated with antiviral candidates that are serially diluted. EC50 is reported via analysis of MTS assay as a readout of CPE. The assay has been performed by KU Leuven.; type: organism-based, Chlorocebus sabaeus, Vero C1008
[3] = test system: Zika virus; test: EC50 is reported via analysis of immunofluorescence staining. The assay has been performed by Icahn School of Medicine at Mount Sinai.; type: functional, organism-based, Chlorocebus sabaeus, VeroE6/TMPRSS2; settings: Zika virus; for EC90: P-gp concentration 2 uM, P-gp inhibitor Elacidar
[4] = test system: Zika virus; test: as §1, with “cells (cotreated with P-gp inhibitor, CP100356).” for “cells.”; type: organism-based, Chlorocebus sabaeus, Vero C1008; settings: for EC90: P-gp concentration 500 nM, P-gp inhibitor CP100356
[5] = test system: dengue virus type 2; test: Functional immunofluorescence assay to measure dose dependent changes in antiviral-drug inhibitory efficacy against Dengue virus type 2 Thailand/16681/84 in Vero E6/TMPRSS2 cells (cotreated with P-gp inhibitor, Elacridar). Cells are treated with antiviral candidates that are serially diluted, following infection, cells are fixed. EC50 is reported via analysis of immunofluorescence staining. The assay has been performed by Icahn School of Medicine at Mount Sinai.; type: organism-based, Chlorocebus sabaeus, VeroE6/TMPRSS2; settings: Dengue virus

CC(C)NC(=O)[C@H](Nc1ccc2c(c1)CNC2)c1cc(Cl)cc2[nH]ncc12
> 50 µM: EC90 ([1]; Dengue virus, Vero C1008, Maximum measured 125.719 %, Minimum measured 102.313 %) | EC90 ([1]; Dengue virus, Vero C1008, Maximum measured 136.006 %, Minimum measured 106.773 %) | EC90 ([1]; Dengue virus, Vero C1008, Maximum measured 137.073 %, Minimum measured 93.467 %) | EC50 ([1]; vero c1008) | EC50 ([2]; Zika virus, Vero C1008) | EC90 ([2]; Zika virus, Vero C1008, Maximum measured -0.394 %, Minimum measured -3.218 %) | EC90 ([4]; Baseline response 0 %, Hill slope 0.274, Maximum measured 19.104 %, Maximum response 100 %, Minimum measured -8.849 %, R squared 0.058) | EC90 ([4]; Baseline response 0 %, Hill slope 0.987, Maximum measured 78.474 %, Maximum response 100 %, Minimum measured 2.604 %, R squared 0.941) | EC90 ([4]; Zika virus, Vero C1008, Baseline response 0 %, Hill slope 2.014, Maximum measured 45.209 %, Maximum response 100 %, Minimum measured -1.87 %, R squared 0.776)
> 6.25 µM: EC90 ([1]; Dengue virus, Vero C1008, Baseline response 0 %, Hill slope 0.455, Maximum measured 96.007 %, Maximum response 100 %, Minimum measured 82.569 %, R squared 0.098)
> 50 µM and 5.7 µM: EC50 ([4]; vero c1008)
> 16.7 µM: EC50 ([3]; VeroE6/TMPRSS2) | EC90 ([3]; VeroE6/TMPRSS2, Maximum measured 103.391 %, Minimum measured 35.108 %)

O=C1Cc2c(cccc2C(=O)Nc2ccc3c(c2)CNC3)N1
> 50 µM: EC50 ([1]; Dengue virus, Vero C1008) | EC90 ([1]; Dengue virus, Vero C1008, Maximum measured 146.808 %, Minimum measured 90.834 %) | EC50 ([2]; Zika virus, Vero C1008) | EC90 ([2]; Zika virus, Vero C1008, Baseline response 0 %, Hill slope 0.284, Maximum measured 8.076 %, Maximum response 100 %, Minimum measured -0.771 %, R squared 0.143) | EC50 ([4]; Zika virus, Vero C1008) | EC90 ([4]; Zika virus, Vero C1008, Baseline response 0 %, Hill slope 0.131, Maximum measured 3.439 %, Maximum response 100 %, Minimum measured 0.392 %, R squared 0.059)

O=C(Nc1ccc2c(c1)CNC2)c1cccc2[nH]ncc12
> 50 µM: EC50 ([5]; VeroE6/TMPRSS2) | EC90 ([5]; VeroE6/TMPRSS2, Maximum measured 158.189 %, Minimum measured 143.688 %, P-gp concentration 2 uM, P-gp inhibitor Elacidar)
< 0.391 µM: EC50 ([1]; Dengue virus, Vero C1008) | EC90 ([1]; Dengue virus, Vero C1008, Baseline response 0 %, Hill slope 0.492, Maximum measured 128.823 %, Maximum response 100 %, Minimum measured 60.42 %, R squared 0.116) | EC50 ([2]; Zika virus, Vero C1008) | EC90 ([2]; Zika virus, Vero C1008, Baseline response 0 %, Hill slope -0.113, Maximum measured 48.96 %, Maximum response 100 %, Minimum measured -6.302 %, R squared 0.011)

CCc1nc2c(C(=O)Nc3ccc4c(c3)CNC4)cc(Br)cc2[nH]1
> 50 µM: EC50 ([1]; Dengue virus, Vero C1008) | EC90 ([1]; Dengue virus, Vero C1008, Maximum measured 122.691 %, Minimum measured 98.084 %) | EC50 ([2]; Zika virus, Vero C1008) | EC90 ([2]; Zika virus, Vero C1008, Baseline response 0 %, Hill slope 0.303, Maximum measured 9.479 %, Maximum response 100 %, Minimum measured 2.16 %, R squared 0.852)
> 5.56 µM: EC50 ([3]; VeroE6/TMPRSS2) | EC90 ([3]; VeroE6/TMPRSS2, Baseline response 0 %, Hill slope 0.058, Maximum measured 88.326 %, Maximum response 100 %, Minimum measured 53.216 %, R squared 0.024)

N#C[C@H](Nc1ccc2c(c1)CNC2)c1cc(Cl)cc2[nH]ncc12
42.5 µM: EC50 ([2]; Zika virus, Vero C1008)
7.2 µM: EC50 ([3]; VeroE6/TMPRSS2)
> 50 µM: EC50 ([1]; Dengue virus, Vero C1008) | EC90 ([1]; Dengue virus, Vero C1008, Maximum measured 117.716 %, Minimum measured 103.927 %) | EC90 ([1]; Dengue virus, Vero C1008, Maximum measured 161.231 %, Minimum measured 110.618 %) | EC90 ([2]; Zika virus, Vero C1008, Baseline response 0 %, Hill slope 4.778, Maximum measured 68.413 %, Maximum response 100 %, Minimum measured -0.525 %, R squared 0.993) | EC90 ([2]; Zika virus, Vero C1008, Maximum measured -1.389 %, Minimum measured -3.372 %) | EC50 ([2]; vero c1008)
> 16.7 µM: EC90 ([3]; VeroE6/TMPRSS2, Baseline response 0 %, Hill slope -1.174, Maximum measured 85.278 %, Maximum response 50 %, Minimum measured 14.695 %, R squared 0.497)

NCCc1ccc([C@H]2C[C@@H]2c2cc(Cl)cc(NC(=O)OCc3ccccc3)c2)cc1
> 3.12 µM: EC50 ([1]; Dengue virus, Vero C1008) | EC90 ([1]; Dengue virus, Vero C1008, Maximum measured 120.903 %, Minimum measured 100.357 %)
> 50 µM: EC50 ([2]; Zika virus, Vero C1008) | EC90 ([2]; Zika virus, Vero C1008, Maximum measured 1.279 %, Minimum measured -5.481 %) | EC50 ([4]; Zika virus, Vero C1008) | EC90 ([4]; Zika virus, Vero C1008, Maximum measured 6.997 %, Minimum measured -5.737 %)
> 6.25 µM: EC90 ([1]; Dengue virus, Vero C1008, Maximum measured 221.095 %, Minimum measured 80.639 %) | EC50 ([1]; vero c1008)
